Data as given in patent US12544442B2, “Biocompatible nanomagnetic discs and methods of use thereof” (priority 2018, dated 2026).

What was measured:
[1] = test system: HL60 cells; experiment: Rat HL60/estradiol tumor model with magnetic field exposure, tumor histopathology (H&E); assay type: in vivo; settings: paclitaxel treated group, 40 mg/kg body weight; H&E 400×
Protocol: (§1) Efficacy studies of BMND were conducted in a rat model. Rats were injected with HL60 cells and estradiol to induce the generation of tumors on various organs. This is a well-established rat model of human tumors. The positive control comprised six healthy rats with no tumor induction and no drug treatment. The negative control comprised six tumor bearing rats with no drug treatment. The test groups included six rats in each group, all induced for tumors, and treated with either paclitaxel (gold standard chemotherapeutic; 40 mg/KG body weight), anti-HL60-BMND at 100 μg/kG body weight, or anti-HL60-BMND at 200 μg/KG body weight.
(§2) Procedure: Rats were inoculated with estradiol-17ß (1.7 mg/pellet) before an injection of 1×10^7 HL60 cells intravenously into tail vein. If tumor observed at various organs, the tumor size could be measured in three dimensions with calipers every 2 days starting at day 7. If tumor was not observed/not palpable, then tumor induction was confirmed by histopathology. […] After confirmation of tumor induction by histopathology, treatment was started.
The rats were exposed to magnetic field according to the following protocol. […] The following parameters were recorded: Treatment Time—60 minutes; Magnetic field intensity—90 G (Gauss); Frequency—20 Hz. […]
Confirmation of tumor was assessed as follows: Formalin fixed tissue of tumor area samples from various organs were received. […]

[2] = test system: HL60 cells; experiment: Rat HL60/estradiol tumor model with magnetic field exposure, cancer cell count in blood; assay type: in vivo
Protocol: as §1, §2
The rats were exposed to magnetic field according to the following protocol. Rats strapped to the VFVF magnetizer as described above. The device was switched on to apply magnetic force of known intensity, frequency and duration to cause “flip/flop” action in the biocompatible magnetic nanodiscs. This application of oscillating field force is expected to cause the Nanomagnetic particles bound to the cell to “flip/flop.” This action is expected to damage the cell wall leading to apoptosis. The following parameters were recorded: Treatment Time—60 minutes; Magnetic field intensity—90 G (Gauss); Frequency—20 Hz. Waveform—sinusoidal
Cancer cell count in blood was ascertained for the treatment groups.

[3] = Paclitaxel 40 mg/kg body weight
[4] = STD group (Paclitaxel 40 mg/kg), baseline

## CC(=O)O[C@H]1C(=O)[C@@]2(C)[C@H]([C@H](OC(=O)c3ccccc3)[C@]3(O)C[C@H](OC(=O)[C@H](O)[C@@H](NC(=O)c4ccccc4)c4ccccc4)C(C)=C1C3(C)C)[C@]1(OC(C)=O)CO[C@@H]1C[C@@H]2O [Paclitaxel]
[1]
  tumor histopathology (FIG. 8C): neoplastic cells (small arrow) with stromal reaction, mitotic figures (arrow head), inflammation and necrosis (large arrow)
[2]; [3]
  Apoptotic cancer cells present per ml in the blood, After treatment 144 hrs: 5.20 × 10^3 per ml in the blood
  Viable cancer cells present per ml of blood, After treatment 144 hrs: 5.47 × 10^3 per ml of blood
[2]; [4]
  Apoptotic cancer cells present per ml in the blood, Before treatment: 852 per ml in the blood
  Viable cancer cells present per ml of blood, Before treatment: 16.08 × 10^3 per ml of blood
